Measurements from US12391939B2, “Genetically-encoded bicyclic peptide libraries” (THE GOVERNORS OF THE UNIVERSITY OF ALBERTA, priority 2018, dated 2025).
Numbered stars: 1 amine (or outer) side, 2 acyl side, 3 side chain; on linkers, the order of the positions; unused ones are H or OH. Bridge positions count the residues as written; N and C are the ends. Ends that are not written are not given here. Peptide text beside a SMILES is read from it. X1 = O=C(C=NOCCCCCCOc1cc(C[*:2])cc(C[*:3])c1)[*:1]; X2 = O=C(C=NOCc1cc(C[*:2])cc(C[*:3])c1)[*:1]; TSL6 = not defined here

What was measured:
[1] = biological target: T1, Nodal (Homo sapiens, UniProt Q96S42); experiment: Inhibition of Nodal-induced Smad2 phosphorylation in P19 cells (Western blot, anti-phospho Smad antibody); type: cell-based; conditions: for ability to antagonize the signaling function of protein Nodal: carcinoma cells
T1 construct: host or cells: added to embryonic carcinoma P19 cells
T1 sequence (Q96S42 238-347): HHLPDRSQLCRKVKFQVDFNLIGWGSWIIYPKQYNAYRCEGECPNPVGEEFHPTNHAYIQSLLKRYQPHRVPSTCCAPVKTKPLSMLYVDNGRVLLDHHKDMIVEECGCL
Experimental: To validate the binding ability of the predicted ligands, we tested the ability of the bicycles to inhibit a known signaling event induced by Nodal. Specifically, we employed Western blot with anti-phospho Smad antibody to detect Nodal-induced phosphorylation of effector protein Smad2 in embryonic carcinoma P19 cells. FIG. 17a describes that treatment of P19 cells with 100 ng/mL Nodal for 1 hour in Dulbecco's Modified Eagles Media (DMEM) supplemented with 2.5% fetal bovine serum (FBS)+7.5% bovine serum albumin (BSA) induces increase in pSmad2 intensity. Nodal-induced increase in pSmad is abrogated when P19 cells are incubated with 100 ng/mL Nodal and known kinase inhibitors SB-431542. […] The bicyclic peptides serve as antagonists of Nodal at 100 micromolar concentration.

[2] = in vitro; conditions: for remaining at 5 h: isolated enzyme pronase
Experimental: The mixture was analyzed by ion-selective LCMS. […] Linear, disulfide and two bicycle compounds made from TSL-1 and TSL-6 linker were incubated with Pronase™ for the indicated period of time (up to 5 hours). The reaction was diluted and analyzed by Ion selective MS-UPLC. The numbers indicate % of intact compound remaining after 5 hours of digestion.
In another rigorous stability test, an aggressive cocktail of endo- and exoproteases (Pronase) were used to digest linear sequence [sequence]

| Compound | remaining at 5 h [2] [%] | other results |
| --- | --- | --- |
| SYCKRAHKNC (linker (positions not given here) via TSL6; reading uncertain; also: bicyclised with TSL6 linker) [bicyclic peptide 11] | – | ability to antagonize the signaling function of protein Nodal [1]: have the ability to antagonize |
| NC(=O)c1ccc(-c2nc(-c3ccc4c(c3)OCO4)c(-c3ccccn3)[nH]2)cc1 [SB-431542, reference compound] | – | Nodal-induced increase in pSmad with known kinase inhibitor ([1]; P19 cells, 100 ng/mL Nodal, inhibitor concentration not given): abrogated |
| CC(C)C[C@H](NC(=O)[C@H](Cc1ccc(O)cc1)NC(=O)[C@H](CS)NC(=O)[C@H](CCC(=O)O)NC(=O)[C@H](CCCNC(=N)N)NC(=O)[C@H](Cc1ccc(O)cc1)NC(=O)[C@H](CC(=O)O)NC(=O)[C@H](Cc1c[nH]c2ccccc12)NC(=O)[C@@H](N)CO)C(=O)N[C@@H](CCC(=O)O)C(=O)N[C@@H](CS)C(=O)O [reference compound] (H-SWDYRECYLEC-OH; N-terminus and C-terminus assumed) | 0.4 ± 0.1 | – |
| CC(C)C[C@@H]1NC(=O)[C@H](Cc2ccc(O)cc2)NC(=O)[C@@H]2CSCc3cc(cc(c3)CSC[C@@H](C(=O)O)NC(=O)[C@H](CCC(=O)O)NC1=O)CON=CC(=O)N[C@@H](Cc1c[nH]c3ccccc13)C(=O)N[C@@H](CC(=O)O)C(=O)N[C@@H](Cc1ccc(O)cc1)C(=O)N[C@@H](CCCNC(=N)N)C(=O)N[C@@H](CCC(=O)O)C(=O)N2 (WDYRECYLEC-OH; linker N-6-10 via X2; C-terminus assumed) | 82 ± 13 | half-life ([2]; Streptomyces griseus): ~1440 min |
| SPCQRGHMFC (linker (positions not given here) via TSL6; reading uncertain; also: bicyclised with TSL6 linker) [bicyclic peptide 7] | – | ability to antagonize the signaling function of protein Nodal [1]: have the ability to antagonize |
| CC(C)C[C@@H]1NC(=O)[C@H](Cc2ccc(O)cc2)NC(=O)[C@@H](NC(=O)[C@H](CCC(=O)O)NC(=O)[C@H](CCCNC(=N)N)NC(=O)[C@H](Cc2ccc(O)cc2)NC(=O)[C@H](CC(=O)O)NC(=O)[C@H](Cc2c[nH]c3ccccc23)NC(=O)[C@@H](N)CO)CSSC[C@@H](C(=O)O)NC(=O)[C@H](CCC(=O)O)NC1=O [reference compound] (H-SWDYRECYLEC-OH; disulfide 7-11; N-terminus and C-terminus assumed) | 0.9 ± 0.4 | – |
| CC(C)C[C@@H]1NC(=O)[C@H](Cc2ccc(O)cc2)NC(=O)[C@@H]2CSCc3cc(cc(c3)OCCCCCCON=CC(=O)N[C@@H](Cc3c[nH]c4ccccc34)C(=O)N[C@@H](CC(=O)O)C(=O)N[C@@H](Cc3ccc(O)cc3)C(=O)N[C@@H](CCCNC(=N)N)C(=O)N[C@@H](CCC(=O)O)C(=O)N2)CSC[C@@H](C(=O)O)NC(=O)[C@H](CCC(=O)O)NC1=O (WDYRECYLEC-OH; linker N-6-10 via X1; C-terminus assumed) | 68 ± 14 | – |
